Data published in paper PMC7217481, “Amino acids serve as an important energy source for adult flukes of Clonorchis sinensis” (PLoS Neglected Tropical Diseases, 2020).

Target: T1, rCsFBPase (Clonorchis sinensis, UniProt G7YVB4)
T1 construct: gene CLF_111764; GenBank id is printed for the qPCR primers and is a genome scaffold
T1 sequence (G7YVB4 1-346): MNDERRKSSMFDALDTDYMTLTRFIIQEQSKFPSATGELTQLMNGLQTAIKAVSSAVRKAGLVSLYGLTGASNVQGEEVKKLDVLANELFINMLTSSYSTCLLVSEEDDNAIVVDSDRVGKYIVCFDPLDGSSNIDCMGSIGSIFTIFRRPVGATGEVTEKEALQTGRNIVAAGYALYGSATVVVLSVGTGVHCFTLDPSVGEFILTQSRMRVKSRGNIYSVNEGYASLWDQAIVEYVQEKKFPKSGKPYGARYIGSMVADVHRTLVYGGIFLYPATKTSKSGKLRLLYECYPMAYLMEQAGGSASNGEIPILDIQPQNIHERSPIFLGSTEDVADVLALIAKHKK
Test: coupled G6PDH / phosphoglucose isomerase assay, NADP+ reduction at […] nm
Format: biochemical

For CC(C)Cc1sc(N)nc1-c1ccc(P(=O)(O)O)o1 [MB05032, [5-[2-amino-5-(2-methylpropyl)-4-thiazolyl]-2-furanyl] phosphonic acid], which IC50 is on record?
Its IC50 is 4.9 µM.

How did the IC50 turn out when Nc1ncnc2c1ncn2[C@@H]1O[C@H](COP(=O)(O)O)[C@@H](O)[C@H]1O [AMP] was run?
The IC50 was 262 µM.
